Measured values published in PubChem BioAssay AID248 (DTP/NCI, 2004).
Values joined by “and” are separate entries in the source; they are usually repeats but may differ in a detail not shown here. Identical values can stand only once. Inconclusive results and toxic doses are left out.

System: L1210 leukemia ip in BDF1 mice, survival T/C
Test: NCI In Vivo Anticancer Drug Screen. Data for tumor model L1210 Leukemia (intraperitoneal) in B6D2F1 (BDF1) mice
Conditions: endpoint: mean survival time, higher = longer survival
Procedure, shortened: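 Antitumor effect is assessed in tumor-bearing animals. Survival in the compound arm is compared with a vehicle-dosed control arm and expressed as their quotient.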

[1] = dose: 100.0 mg/kg/injection, schedule: Q01DX009 (ip), vehicle: saline with Tween-80
[2] = dose: 200.0 mg/kg/injection, schedule: Q01DX009 (ip), vehicle: saline with Tween-80
[3] = dose: 400.0 mg/kg/injection, schedule: Q01DX009 (ip), vehicle: saline with Tween-80
[4] = dose: 2.0 mg/kg/injection, schedule: Q01DX015 (ip), vehicle: carboxymethylcellulose (CMC)
[5] = dose: 4.0 mg/kg/injection, schedule: Q01DX015 (ip), vehicle: carboxymethylcellulose (CMC)
[6] = dose: 100.0 mg/kg/injection, schedule: Q04DX003 (ip), vehicle: saline with Tween-80
[7] = dose: 100.0 mg/kg/injection, schedule: Q01DX001 (ip), vehicle: Klucel (hydroxypropylcellulose) (HPC)
[8] = dose: 200.0 mg/kg/injection, schedule: Q01DX001 (ip), vehicle: Klucel (hydroxypropylcellulose) (HPC)
[9] = dose: 400.0 mg/kg/injection, schedule: Q01DX001 (ip), vehicle: Klucel (hydroxypropylcellulose) (HPC)

## COC(=O)NC1CC(OC2CC(O)(C(C)=O)Cc3c(O)c4c(c(O)c32)C(=O)c2c(OC)cccc2C4=O)OC(C)C1O (stereo not given)
dose: 2.0 mg/kg/injection, schedule: Q04DX003 (ip), vehicle: water
  T/C: 105 % of control
dose: 3.12 mg/kg/injection, schedule: Q01DX009 (ip), vehicle: saline with Tween-80
  T/C: 103 % of control
dose: 4.0 mg/kg/injection, schedule: Q04DX003 (ip), vehicle: water
  T/C: 106 % of control
dose: 6.25 mg/kg/injection, schedule: Q01DX009 (ip), vehicle: saline with Tween-80
  T/C: 178 % of control
dose: 8.0 mg/kg/injection, schedule: Q04DX003 (ip), vehicle: water
  T/C: 112 % of control
dose: 12.5 mg/kg/injection, schedule: Q01DX009 (ip), vehicle: saline with Tween-80
  T/C: 124 % of control
dose: 16.0 mg/kg/injection, schedule: Q04DX003 (ip), vehicle: water
  T/C: 109 % of control and 111 % of control
dose: 18.75 mg/kg/injection, schedule: Q04DX003 (ip), vehicle: saline with Tween-80
  T/C: 112 % of control
dose: 25.0 mg/kg/injection, schedule: Q01DX009 (ip), vehicle: saline with Tween-80
  T/C: 120 % of control
dose: 32.0 mg/kg/injection, schedule: Q04DX003 (ip), vehicle: water
  T/C: 110 % of control
dose: 37.5 mg/kg/injection, schedule: Q04DX003 (ip), vehicle: saline with Tween-80
  T/C: 118 % of control
dose: 50.0 mg/kg/injection, schedule: Q01DX009 (ip), vehicle: saline with Tween-80
  T/C: 122 % of control
dose: 64.0 mg/kg/injection, schedule: Q04DX003 (ip), vehicle: water
  T/C: 110 % of control
dose: 75.0 mg/kg/injection, schedule: Q04DX003 (ip), vehicle: saline with Tween-80
  T/C: 118 % of control
dose: 150.0 mg/kg/injection, schedule: Q04DX003 (ip), vehicle: saline with Tween-80
  T/C: 115 % of control
dose: 125.0 micrograms/kg/injection, schedule: Q04DX003 (ip), vehicle: water
  T/C: 102 % of control
dose: 250.0 micrograms/kg/injection, schedule: Q04DX003 (ip), vehicle: water
  T/C: 107 % of control
dose: 500.0 micrograms/kg/injection, schedule: Q04DX003 (ip), vehicle: water
  T/C: 101 % of control
dose: 1000.0 micrograms/kg/injection, schedule: Q04DX003 (ip), vehicle: water
  T/C: 103 % of control
dose: 2000.0 micrograms/kg/injection, schedule: Q04DX003 (ip), vehicle: water
  T/C: 106 % of control

## CC1(C)CN1C1=C(F)C(=O)C(N2CC2(C)C)=C(F)C1=O
dose: 6.25 mg/kg/injection, schedule: Q04DX003 (ip), vehicle: saline
  T/C: 100 % of control
dose: 12.5 mg/kg/injection, schedule: Q04DX003 (ip), vehicle: saline
  T/C: 104 % of control
dose: 25.0 mg/kg/injection, schedule: Q04DX003 (ip), vehicle: saline
  T/C: 104 % of control

## NC(=O)COc1c(F)c(F)c(F)c(F)c1F
[1]
  T/C: 101 % of control
[2]
  T/C: 101 % of control
[3]
  T/C: 97 % of control

## CCC(C)P(=O)(N1CC1)N1CC1 (stereo not given)
[4]
  T/C: 100 % of control
[5]
  T/C: 103 % of control
dose: 8.0 mg/kg/injection, schedule: Q01DX015 (ip), vehicle: carboxymethylcellulose (CMC)
  T/C: 105 % of control
dose: 16.0 mg/kg/injection, schedule: Q01DX015 (ip), vehicle: carboxymethylcellulose (CMC)
  T/C: 121 % of control
dose: 32.0 mg/kg/injection, schedule: Q01DX015 (ip), vehicle: carboxymethylcellulose (CMC)
  T/C: 183 % of control

## CN(C)c1ccc(/C=C2\C=Cc3ccccc32)cc1Br
[6]
  T/C: 101 % of control

## O=C(O)/C=C/C(=O)Nc1cccc2c1C(=O)c1ccccc1-2
[6]
  T/C: 94 % of control

## C1CCC(NCCNC2CCCCC2)CC1
dose: 75.0 mg/kg/injection, schedule: Q01DX001 (ip), vehicle: saline
  T/C: 98 % of control

## O=[N+]([O-])c1ccc(CBr)c(I)c1
dose: 75.0 mg/kg/injection, schedule: Q01DX001 (ip), vehicle: other
  T/C: 98 % of control
dose: 150.0 mg/kg/injection, schedule: Q01DX001 (ip), vehicle: other
  T/C: 102 % of control
dose: 300.0 mg/kg/injection, schedule: Q01DX001 (ip), vehicle: other
  T/C: 94 % of control

## CCC(C)c1ccc(O)c(C(C)CC)c1 (stereo not given)
[1]
  T/C: 106 % of control
[6]
  T/C: 106 % of control
[2]
  T/C: 101 % of control
dose: 200.0 mg/kg/injection, schedule: Q04DX003 (ip), vehicle: saline with Tween-80
  T/C: 101 % of control
[3]
  T/C: 102 % of control
dose: 400.0 mg/kg/injection, schedule: Q04DX003 (ip), vehicle: saline with Tween-80
  T/C: 94 % of control

## O=C(O)c1ccc(N=C=S)cc1O
[7]
  T/C: 97 % of control
[8]
  T/C: 107 % of control
[9]
  T/C: 97 % of control

## CSc1ncc2c(=O)n(-c3ccccc3)[nH]c2n1
[7]
  T/C: 103 % of control
[8]
  T/C: 97 % of control
[9]
  T/C: 87 % of control

## Nc1nc2ncc(CNc3cnc(C(=O)NC(CCC(=O)O)C(=O)O)nc3)nc2c(=O)[nH]1 (stereo not given)
dose: 50.0 mg/kg/injection, schedule: Q01DX009 (ip), vehicle: alkali diluted with saline
  T/C: 107 % of control
dose: 100.0 mg/kg/injection, schedule: Q01DX001 (ip), vehicle: saline with Tween-80
  T/C: 103 % of control
dose: 200.0 mg/kg/injection, schedule: Q01DX001 (ip), vehicle: saline with Tween-80
  T/C: 112 % of control

## CC(=O)CC(=O)Nc1ccc(Cc2ccc(NC(=O)CC(C)=O)c(C)c2)cc1C
dose: 100.0 mg/kg/injection, schedule: Q01DX001 (ip), vehicle: saline
  T/C: 88 % of control
dose: 200.0 mg/kg/injection, schedule: Q01DX001 (ip), vehicle: saline
  T/C: 94 % of control
dose: 400.0 mg/kg/injection, schedule: Q01DX001 (ip), vehicle: saline
  T/C: 94 % of control

## O=C1CCC(=O)C2CC=CCC12 (stereo not given)
dose: 100.0 mg/kg/injection, schedule: Q## X003 (ip), vehicle: saline
  T/C: 101 % of control
dose: 200.0 mg/kg/injection, schedule: Q## X003 (ip), vehicle: saline
  T/C: 108 % of control
dose: 400.0 mg/kg/injection, schedule: Q## X003 (ip), vehicle: saline
  T/C: 98 % of control

## [O-]/[N+](=N\Nc1ccccc1)c1ccccc1
dose: 7.5 mg/kg/injection, schedule: Q01DX009 (ip), vehicle: saline with Tween-80
  T/C: 107 % of control
dose: 15.0 mg/kg/injection, schedule: Q01DX009 (ip), vehicle: saline with Tween-80
  T/C: 104 % of control
dose: 30.0 mg/kg/injection, schedule: Q01DX009 (ip), vehicle: saline with Tween-80
  T/C: 89 % of control
dose: 60.0 mg/kg/injection, schedule: Q01DX009 (ip), vehicle: saline with Tween-80
  T/C: 96 % of control

## CC1=NN(c2ccccc2)C(=O)/C1=C\c1ccccc1
dose: 100.0 mg/kg/injection, schedule: Q01DX009 (ip), vehicle: Klucel (hydroxypropylcellulose) (HPC)
  T/C: 97 % of control
dose: 200.0 mg/kg/injection, schedule: Q01DX009 (ip), vehicle: Klucel (hydroxypropylcellulose) (HPC)
  T/C: 95 % of control

## O=[N+]([O-])c1cccc2cncc(Br)c12
dose: 100.0 mg/kg/injection, schedule: Q01DX001 (ip), vehicle: other
  T/C: 95 % of control
dose: 200.0 mg/kg/injection, schedule: Q01DX001 (ip), vehicle: other
  T/C: 106 % of control
dose: 400.0 mg/kg/injection, schedule: Q01DX001 (ip), vehicle: other
  T/C: 104 % of control

## CCC/C=C/CC1CC2CC(C1C)C2(C)C (stereo not given)
dose: 50.0 mg/kg/injection, schedule: Q01DX009 (ip), vehicle: other
  T/C: 97 % of control
dose: 100.0 mg/kg/injection, schedule: Q01DX009 (ip), vehicle: other
  T/C: 101 % of control
dose: 200.0 mg/kg/injection, schedule: Q01DX009 (ip), vehicle: other
  T/C: 90 % of control

## CCOC(=O)C(C)C1(O)CCCCC1 (stereo not given)
dose: 100.0 mg/kg/injection, schedule: Q01DX009 (ip), vehicle: saline
  T/C: 98 % of control
dose: 200.0 mg/kg/injection, schedule: Q01DX009 (ip), vehicle: saline
  T/C: 95 % of control
dose: 400.0 mg/kg/injection, schedule: Q01DX009 (ip), vehicle: saline
  T/C: 98 % of control

## CC(C)CCOP(=S)(N1CC1)N1CC1
[4]
  T/C: 101 % of control
[5]
  T/C: 103 % of control
dose: 44.4 mg/kg/injection, schedule: Q01DX001 (ip), vehicle: carboxymethylcellulose (CMC)
  T/C: 117 % of control
dose: 100.0 mg/kg/injection, schedule: Q01DX001 (ip), vehicle: carboxymethylcellulose (CMC)
  T/C: 164 % of control

## O=C(COc1cccc(Cl)c1)NCc1ccc(NC(=O)c2cccc(S(=O)(=O)F)c2)cc1
dose: 25.0 mg/kg/injection, schedule: Q04DX002 (ip), vehicle: Klucel (hydroxypropylcellulose) (HPC)
  T/C: 111 % of control
dose: 50.0 mg/kg/injection, schedule: Q04DX002 (ip), vehicle: Klucel (hydroxypropylcellulose) (HPC)
  T/C: 107 % of control
dose: 100.0 mg/kg/injection, schedule: Q04DX002 (ip), vehicle: Klucel (hydroxypropylcellulose) (HPC)
  T/C: 100 % of control
